Data from paper PMC8201479, “Trisubstituted Pyrrolinones as Small-Molecule Inhibitors Disrupting the Protein–RNA Interaction of LIN28 and Let-7” (ACS Medicinal Chemistry Letters, 2021).

Biological target: T1, cold shock domain of LIN28A (residues 16–126) (Homo sapiens, UniProt Q9H9Z2)
T1 construct: cold shock domain construct LIN28 A (residues 16– 126)
T1 sequence (Q9H9Z2 16-126): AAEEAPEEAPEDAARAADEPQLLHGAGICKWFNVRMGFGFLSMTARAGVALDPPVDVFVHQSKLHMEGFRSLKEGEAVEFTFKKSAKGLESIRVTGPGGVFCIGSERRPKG
Assay: Thermal shift assay (nano-differential scanning fluorimetry)
Type: binding
Conditions: 30 µM protein, compound 100 µM to 0.78 µM
Experimental: was detected after incubation at room temperature using a TECAN Spark plate reader. Half maximal […]
inhibitory concentrations (IC50) were determined using GraphPad Prism 7.
Compound screening. High throughput screening was performed in low volume 384 well plates […]
(Corning 4514) with 30 µM compound, 40 nM LIN28A, and 2 nM preE-let-7f-1-FAM in FP assay […]
buffer. Compounds were transferred with an ECHO 520 liquid handler and protein and RNA were […]
added with a multidrop dispenser. Protein and RNA were added stepwise with a 30 min incubation […]
period in between. FP was detected after a final incubation of 15 min with an Envision plate reader […]
and fluorescence was measured with a Paradigm plate reader. A reaction without LIN28 served as a […]
negative control and one without compound was used as a positive control. The software Quattro […]
fluorescence was detected with a ChemiDoc M P (Bio-Rad) and 2 minutes of exposure time. […]
126) with and without compound was monitored using a NanoTemper Prometheus NT.48 nano - […]
differential scanning fluorimetry (nanoDSF) instrument at temperatures between 20 °C and 90 °C and a temperature slope of 1 °C per minute with an excitation power of 50–60 %. […] The ratio of intrinsic tryptophan fluorescence at 350 nm and 330 nm was measured and the first derivative was determined to detect the inflection points using the software of the device. […]

thermal stability of the CSD of LIN28A: concentration-dependent enhancement
SMILES: O=C(C1=C(O)C(=O)N(c2ccc(O)c(C(=O)O)c2)C1c1ccc(-c2nccs2)cc1)c1ccc(Br)cc1 (stereo not shown) [C902/PH-31]
